{
  "source": "patent US8367328B2",
  "about": "“Method for synthesizing DNA” (Takara Bio Inc., priority 1998, dated 2013)",
  "key": {"[1]": {"tested_on": "Pfu DNA Polymerase I and Pfu DNA Polymerase II", "test": "PCR with Pfu DNA Polymerase I plus Pfu DNA Polymerase II in the presence of acidic substances", "type": "biochemical, Pyrococcus furiosus", "details": "commercially available sodium alginate, 100 to 1000 centipoises; Example 12 conditions", "experimental": "Using λDNA as a template, and each of primers λ1 and λ3, primers λ1 and λ4, or primers λ1 and λ5 as a primer pair, the reaction mixture having the following composition was prepared.\nComposition of Reaction Mixture: 10 mM Tris-hydrochloric acid (pH 9.2), 75 mM potassium chloride, 6 mM magnesium chloride, 0.4 mM each of dATP, dCTP, dGTP and dTTP, 0.01% BSA, 1.25 U of Pfu DNA Polymerase I and 1.25 U of Pfu DNA Polymerase II, 500 pg of λDNA, and 5 pmol each of the primers, 5 ng or 50 ng of sulfated-fucose-containing polysaccharide-F (a final volume being 25 μl). In addition, as a control, one without addition of sulfated-fucose-containing polysaccharide-F was prepared.\n(§1) The reaction in 30 cycles was carried out for each of these reaction mixtures, wherein one cycle of reaction comprises a process consisting of 98° C., 0 seconds—68° C., 0 seconds. Thereafter, 5 μl of the resulting reaction mixture was subjected to electrophoresis on 1% agarose gel containing ethidium bromide in an amount of 0.00005%, whereby an amplified fragment was confirmed.\nPCR was carried out by using in combination Pfu DNA Polymerase II obtained in Example 1 and Pfu DNA Polymerase I (manufactured by Stratagene), which is α-type DNA polymerase, and sodium alginate, which is an acidic substance.\nA reaction mixture comprising λDNA as a template, primers λ1 and λ3 as a primer pair was prepared, and PCR was carried out. […]"}, "KOD DNA Polymerase": {"target": "T1, KOD DNA Polymerase (Thermococcus kodakarensis, UniProt P77933, DEL407-766/DEL852-1388)", "T1 construct": "purchased TOYOBO CO., LTD", "T1 sequence (P77933 other isoform, or with tags, fused parts or gaps DEL407-766/DEL852-1388)": "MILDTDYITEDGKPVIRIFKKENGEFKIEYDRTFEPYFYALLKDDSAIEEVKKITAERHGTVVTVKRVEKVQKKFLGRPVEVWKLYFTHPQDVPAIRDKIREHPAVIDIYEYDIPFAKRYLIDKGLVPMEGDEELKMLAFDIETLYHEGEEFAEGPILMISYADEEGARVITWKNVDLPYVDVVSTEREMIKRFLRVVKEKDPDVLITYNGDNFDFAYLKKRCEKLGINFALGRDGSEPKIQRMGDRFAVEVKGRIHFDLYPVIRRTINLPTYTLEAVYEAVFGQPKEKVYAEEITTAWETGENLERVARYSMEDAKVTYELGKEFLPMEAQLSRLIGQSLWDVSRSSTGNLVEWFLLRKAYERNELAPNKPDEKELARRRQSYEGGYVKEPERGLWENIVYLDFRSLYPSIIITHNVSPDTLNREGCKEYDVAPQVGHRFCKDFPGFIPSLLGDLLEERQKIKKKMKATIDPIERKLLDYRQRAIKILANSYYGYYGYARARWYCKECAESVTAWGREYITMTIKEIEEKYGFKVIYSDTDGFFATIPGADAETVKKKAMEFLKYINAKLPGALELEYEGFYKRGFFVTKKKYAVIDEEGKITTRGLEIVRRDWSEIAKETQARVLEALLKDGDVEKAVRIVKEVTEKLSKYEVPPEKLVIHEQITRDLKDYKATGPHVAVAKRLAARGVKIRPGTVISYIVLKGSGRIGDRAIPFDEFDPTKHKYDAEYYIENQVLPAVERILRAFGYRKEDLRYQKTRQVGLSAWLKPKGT", "test": "PCR with KOD DNA Polymerase (α-type) in the presence of acidic substances", "type": "biochemical, Pyrococcus sp.", "details": "10 kb fragment, 100 pg λDNA, 30 cycles 98°C 5 s–68°C 3 min", "experimental": "(1) Using sodium alginate, sodium hyaluronate (manufactured by Seikagaku Kogyo), or κ carrageenan (manufactured by Sigma), the effects of these acidic substances on α-type DNA polymerase were examined. A reaction mixture comprising λDNA as a template, primers λ1 and λ8 as a primer pair, and KOD DNA Polymerase (manufactured by TOYOBO CO., LTD.) as DNA polymerase was prepared, and PCR was carried out. The composition of the reaction mixture is as follows. Composition of Reaction Mixture: KOD DNA Polymerase Buffer I (manufactured by TOYOBO CO., LTD.) 0.2 mM each of dATP, dCTP, dGTP and dTTP, 0.625 U of KOD DNA Polymerase, 100 pg of λDNA, and 5 pmol each of primers λ1 and λ8 (a final volume being 25 μl). Further, 1 μg or 2.5 μg of sodium alginate, 0.1 μg or 0.5 μg of sodium hyaluronate, or 0.1 μg or 0.25 μg of κ carrageenan was respectively added to the above reaction mixture.\nas §1, with “C., 5” for “C., 0”, “C., 3 minutes.” for “C., 0 seconds.”\n(2) The effects on α-type DNA polymerase were also examined in the same manner as in item (1) above for sodium alginate, κ carrageenan, sodium heparan sulfate (manufactured by Sigma), sodium dermatan sulfate (manufactured by Sigma), potassium polyvinyl sulfate (manufactured by nacalaitesque) or sodium polystyrenesulfonate (two kinds: average molecular weights of 5,400 and 35,000, all manufactured by nacalaitesque). A reaction mixture comprising λDNA as a template, primers λ1 and λ8 as a primer pair, and KOD DNA Polymerase as DNA polymerase was prepared, and PCR was carried out. The composition of the reaction mixture is as follows. Composition of Reaction Mixture: KOD DNA Polymerase Buffer II (manufactured by TOYOBO CO., LTD.) 0.2 mM each of dATP, dCTP, dGTP and dTTP, 1.25 U of KOD DNA Polymerase, 100 pg of λDNA, and 10 pmol each of primers λ1 and λ8 (a final volume being 50 μl). Further, 2.5 μg or 5 μg of sodium alginate, 0.25 μg or 0.5 μg of κ carrageenan, or 125 ng, 250 ng or 375 ng of sodium dermatan sulfate, 500 ng of sodium heparan sulfate, 10 ng of potassium polyvinyl sulfate, 2.5 ng or 5 ng of sodium polystyrenesulfonate (average molecular weight: 5,400), or 5 ng of sodium polystyrenesulfonate (average molecular weight: 35,000) was respectively added to the above reaction mixture."}},
  "data": [
    {"substance": "sodium alginate", "values": [
      {"measurement": "Amplification efficiency for DNA synthesis, sodium alginate of each viscosity", "setting": "[1]", "value": "completely the same improvements"},
      {"measurement": "Amplification Results", "setting": "KOD DNA Polymerase; Buffer I, 0.625 U KOD, primers λ1/λ8, 25 μl, amount added 1 μg", "value": "++ (Intensive amplification being observed)"},
      {"measurement": "Amplification Results", "setting": "KOD DNA Polymerase; Buffer I, 0.625 U KOD, primers λ1/λ8, 25 μl, amount added 2.5 μg", "value": "++ (Intensive amplification being observed)"},
      {"measurement": "Amplification Results", "setting": "KOD DNA Polymerase; Buffer II, 1.25 U KOD, primers λ1/λ8, 50 μl, amount added 2.5 μg", "value": "++ (Intensive amplification being observed)"},
      {"measurement": "Amplification Results", "setting": "KOD DNA Polymerase; Buffer II, 1.25 U KOD, primers λ1/λ8, 50 μl, amount added 5 μg", "value": "++ (Intensive amplification being observed)"}
    ]}
  ]
}
